In brackets after ≈: the same amount, converted by molar mass. Activity calls are given as the source filed them. No cut-off for these calls is given here.
Legend:
[1] = Inhibition of bacterial Metallo-beta-lactamase IMP-1 using nitrocefin as substrate pre-incubated for 15 mins followed by substrate addition by microplate reader; set-up: species or system Bacteria
Escherichia coli [2] = assay: Antibacterial activity against Escherichia coli KB366 expressing IMP-1 assessed as inhibition of bacterial growth at 100 ug in presence of meropenem incubated overnight by paper disk method; assay type: functional; settings: read-out: IZ
Escherichia coli [3] = assay: Antibacterial activity against Escherichia coli KB366 expressing IMP-1 assessed as inhibition of bacterial growth at 30 ug in presence of meropenem incubated overnight by paper disk method; assay type: functional; settings: read-out: IZ
Escherichia coli [4] = assay: Antibacterial activity against Escherichia coli KB366 expressing IMP-1 assessed as inhibition of bacterial growth at 10 ug in presence of meropenem incubated overnight by paper disk method; assay type: functional; settings: read-out: IZ
Escherichia coli [5] = assay: Antibacterial activity against Escherichia coli KB366 expressing IMP-1 assessed as inhibition of bacterial growth at 3 ug in presence of meropenem incubated overnight by paper disk method; assay type: functional; settings: read-out: IZ
Escherichia coli [6] = assay: Antibacterial activity against Escherichia coli KB366 expressing IMP-1 assessed as inhibition of bacterial growth at 1 ug in presence of meropenem incubated overnight by paper disk method; assay type: functional; settings: read-out: IZ
Escherichia coli [7] = assay: Antibacterial activity against Escherichia coli KB366 expressing IMP-1 assessed as inhibition of bacterial growth at 0.3 ug in presence of meropenem incubated overnight by paper disk method; assay type: functional; settings: read-out: IZ
Escherichia coli [8] = assay: Antibacterial activity against Escherichia coli KB366 expressing IMP-1 assessed as inhibition of bacterial growth at 0.1 ug in presence of meropenem incubated overnight by paper disk method; assay type: functional
Escherichia coli [9] = assay: Antibacterial activity against Escherichia coli KB366 expressing IMP-1 assessed as inhibition of bacterial growth at 0.03 ug in presence of meropenem incubated overnight by paper disk method; assay type: functional
Escherichia coli [10] = assay: Antibacterial activity against Escherichia coli KB366 expressing IMP-1 assessed as inhibition of bacterial growth at 0.01 ug in presence of meropenem incubated overnight by paper disk method; assay type: functional; settings: dose 0.01 µg
Escherichia coli [11] = assay: Antibacterial activity against Escherichia coli KB366 expressing IMP-1 assessed as inhibition of bacterial growth at 100 ug in absence of meropenem incubated overnight by paper disk method; assay type: functional, organism-based; settings: dose 100.0 µg
Escherichia coli [12] = assay: Antibacterial activity against Escherichia coli KB366 expressing IMP-1 assessed as inhibition of bacterial growth at 30 ug in absence of meropenem incubated overnight by paper disk method; assay type: functional, organism-based; settings: dose 30.0 µg
Escherichia coli [13] = assay: Antibacterial activity against Escherichia coli KB366 expressing IMP-1 assessed as inhibition of bacterial growth at 10 ug in absence of meropenem incubated overnight by paper disk method; assay type: functional, organism-based; settings: dose 10.0 µg
Escherichia coli [14] = assay: Antibacterial activity against Escherichia coli KB366 expressing IMP-1 assessed as inhibition of bacterial growth at 3 ug in absence of meropenem incubated overnight by paper disk method; assay type: functional, organism-based; settings: dose 3.0 µg
Escherichia coli [15] = assay: Antibacterial activity against Escherichia coli KB366 expressing IMP-1 assessed as inhibition of bacterial growth at 1 ug in absence of meropenem incubated overnight by paper disk method; assay type: functional, organism-based; settings: dose 1.0 µg
Escherichia coli [16] = assay: Antibacterial activity against Escherichia coli KB366 expressing IMP-1 assessed as inhibition of bacterial growth at 0.3 ug in absence of meropenem incubated overnight by paper disk method; assay type: functional, organism-based; settings: dose 0.3 µg
Escherichia coli [17] = assay: Antibacterial activity against Escherichia coli KB366 expressing IMP-1 assessed as inhibition of bacterial growth at 0.1 ug in absence of meropenem incubated overnight by paper disk method; assay type: functional, organism-based; settings: dose 0.1 µg
Escherichia coli [18] = assay: Antibacterial activity against Escherichia coli KB366 expressing IMP-1 assessed as inhibition of bacterial growth at 0.03 ug in absence of meropenem incubated overnight by paper disk method; assay type: functional, organism-based; settings: dose 0.03 µg
Escherichia coli [19] = assay: Antibacterial activity against Escherichia coli KB366 expressing IMP-1 assessed as inhibition of bacterial growth at 0.01 ug in absence of meropenem incubated overnight by paper disk method; assay type: functional, organism-based; settings: dose 0.01 µg
Pseudomonas aeruginosa [20] = assay: Antibacterial activity against Pseudomonas aeruginosa KB367 expressing IMP-1 assessed as inhibition of bacterial growth at 100 ug in presence of meropenem incubated overnight by paper disk method; assay type: functional; settings: read-out: IZ
Pseudomonas aeruginosa [21] = assay: Antibacterial activity against Pseudomonas aeruginosa KB367 expressing IMP-1 assessed as inhibition of bacterial growth at 30 ug in presence of meropenem incubated overnight by paper disk method; assay type: functional; settings: read-out: IZ
Pseudomonas aeruginosa [22] = assay: Antibacterial activity against Pseudomonas aeruginosa KB367 expressing IMP-1 assessed as inhibition of bacterial growth at 10 ug in presence of meropenem incubated overnight by paper disk method; assay type: functional; settings: read-out: IZ
Pseudomonas aeruginosa [23] = assay: Antibacterial activity against Pseudomonas aeruginosa KB367 expressing IMP-1 assessed as inhibition of bacterial growth at 3 ug in presence of meropenem incubated overnight by paper disk method; assay type: functional
Pseudomonas aeruginosa [24] = assay: Antibacterial activity against Pseudomonas aeruginosa KB367 expressing IMP-1 assessed as inhibition of bacterial growth at 1 ug in presence of meropenem incubated overnight by paper disk method; assay type: functional
Pseudomonas aeruginosa [25] = assay: Antibacterial activity against Pseudomonas aeruginosa KB367 expressing IMP-1 assessed as inhibition of bacterial growth at 0.3 ug in presence of meropenem incubated overnight by paper disk method; assay type: functional, organism-based; settings: dose 0.3 µg
Pseudomonas aeruginosa [26] = assay: Antibacterial activity against Pseudomonas aeruginosa KB367 expressing IMP-1 assessed as inhibition of bacterial growth at 0.1 ug in presence of meropenem incubated overnight by paper disk method; assay type: functional, organism-based; settings: dose 0.1 µg
Pseudomonas aeruginosa [27] = assay: Antibacterial activity against Pseudomonas aeruginosa KB367 expressing IMP-1 assessed as inhibition of bacterial growth at 0.03 ug in presence of meropenem incubated overnight by paper disk method; assay type: functional, organism-based; settings: dose 0.03 µg
Pseudomonas aeruginosa [28] = assay: Antibacterial activity against Pseudomonas aeruginosa KB367 expressing IMP-1 assessed as inhibition of bacterial growth at 0.01 ug in presence of meropenem incubated overnight by paper disk method; assay type: functional, organism-based; settings: dose 0.01 µg
Pseudomonas aeruginosa [29] = assay: Antibacterial activity against Pseudomonas aeruginosa KB367 expressing IMP-1 assessed as inhibition of bacterial growth at 100 ug in absence of meropenem incubated overnight by paper disk method; assay type: functional, organism-based; settings: dose 100.0 µg
Pseudomonas aeruginosa [30] = assay: Antibacterial activity against Pseudomonas aeruginosa KB367 expressing IMP-1 assessed as inhibition of bacterial growth at 30 ug in absence of meropenem incubated overnight by paper disk method; assay type: functional, organism-based; settings: dose 30.0 µg
Pseudomonas aeruginosa [31] = assay: Antibacterial activity against Pseudomonas aeruginosa KB367 expressing IMP-1 assessed as inhibition of bacterial growth at 10 ug in absence of meropenem incubated overnight by paper disk method; assay type: functional, organism-based; settings: dose 10.0 µg
Pseudomonas aeruginosa [32] = assay: Antibacterial activity against Pseudomonas aeruginosa KB367 expressing IMP-1 assessed as inhibition of bacterial growth at 3 ug in absence of meropenem incubated overnight by paper disk method; assay type: functional, organism-based; settings: dose 3.0 µg
Pseudomonas aeruginosa [33] = assay: Antibacterial activity against Pseudomonas aeruginosa KB367 expressing IMP-1 assessed as inhibition of bacterial growth at 1 ug in absence of meropenem incubated overnight by paper disk method; assay type: functional, organism-based; settings: dose 1.0 µg
Pseudomonas aeruginosa [34] = assay: Antibacterial activity against Pseudomonas aeruginosa KB367 expressing IMP-1 assessed as inhibition of bacterial growth at 0.3 ug in absence of meropenem incubated overnight by paper disk method; assay type: functional, organism-based; settings: dose 0.3 µg
Pseudomonas aeruginosa [35] = assay: Antibacterial activity against Pseudomonas aeruginosa KB367 expressing IMP-1 assessed as inhibition of bacterial growth at 0.1 ug in absence of meropenem incubated overnight by paper disk method; assay type: functional, organism-based; settings: dose 0.1 µg
Pseudomonas aeruginosa [36] = assay: Antibacterial activity against Pseudomonas aeruginosa KB367 expressing IMP-1 assessed as inhibition of bacterial growth at 0.03 ug in absence of meropenem incubated overnight by paper disk method; assay type: functional, organism-based; settings: dose 0.03 µg
Pseudomonas aeruginosa [37] = assay: Antibacterial activity against Pseudomonas aeruginosa KB367 expressing IMP-1 assessed as inhibition of bacterial growth at 0.01 ug in absence of meropenem incubated overnight by paper disk method; assay type: functional, organism-based; settings: dose 0.01 µg

| Compound | IC50 [1] [µg/mL] | zone of inhibition at 100 µg/disc (Escherichia coli [2]) [mm] | zone of inhibition at 30 µg/disc (Escherichia coli [3]) [mm] | zone of inhibition at 10 µg/disc (Escherichia coli [4]) [mm] | zone of inhibition at 3 µg/disc (Escherichia coli [5]) [mm] | zone of inhibition at 1 µg/disc (Escherichia coli [6]) [mm] | zone of inhibition at 0.3 µg/disc (Escherichia coli [7]) [mm] | inhibition zone (IZ) (Escherichia coli [10]) | inhibition zone (IZ) (Escherichia coli [11]) | inhibition zone (IZ) (Escherichia coli [12]) | inhibition zone (IZ) (Escherichia coli [13]) | inhibition zone (IZ) (Escherichia coli [14]) | inhibition zone (IZ) (Escherichia coli [15]) | inhibition zone (IZ) (Escherichia coli [16]) | inhibition zone (IZ) (Escherichia coli [17]) | inhibition zone (IZ) (Escherichia coli [18]) | inhibition zone (IZ) (Escherichia coli [19]) | zone of inhibition at 100 µg/disc (Pseudomonas aeruginosa [20]) [mm] | zone of inhibition at 30 µg/disc (Pseudomonas aeruginosa [21]) [mm] | zone of inhibition at 10 µg/disc (Pseudomonas aeruginosa [22]) [mm] | other results |
| --- | --- | --- | --- | --- | --- | --- | --- | --- | --- | --- | --- | --- | --- | --- | --- | --- | --- | --- | --- | --- | --- |
| CCCC/C(C(=O)[O-])=C(/C(=O)[O-])c1ccc(O)c(O)c1.[Na+].[Na+] | 0.56 | 31 | 27 | 22 | 19 | 15 | 12 | inactive | inactive | inactive | inactive | inactive | inactive | inactive | inactive | inactive | inactive | 20 | 18 | 14 | zone of inhibition at 0.1 µg/disc (Escherichia coli [8]; read-out: IZ): 10 mm; zone of inhibition at 0.03 µg/disc (Escherichia coli [9]; read-out: IZ): 9 mm; zone of inhibition at 3 µg/disc (Pseudomonas aeruginosa [23]; read-out: IZ): 11 mm; zone of inhibition at 1 µg/disc (Pseudomonas aeruginosa [24]; read-out: IZ): 9 mm; inhibition zone (IZ) (Pseudomonas aeruginosa [25]): inactive; inhibition zone (IZ) (Pseudomonas aeruginosa [26]): inactive; inhibition zone (IZ) (Pseudomonas aeruginosa [27]): inactive; inhibition zone (IZ) (Pseudomonas aeruginosa [28]): inactive; inhibition zone (IZ) (Pseudomonas aeruginosa [29]): inactive; inhibition zone (IZ) (Pseudomonas aeruginosa [30]): inactive; inhibition zone (IZ) (Pseudomonas aeruginosa [31]): inactive; inhibition zone (IZ) (Pseudomonas aeruginosa [32]): inactive; inhibition zone (IZ) (Pseudomonas aeruginosa [33]): inactive; inhibition zone (IZ) (Pseudomonas aeruginosa [34]): inactive; inhibition zone (IZ) (Pseudomonas aeruginosa [35]): inactive; inhibition zone (IZ) (Pseudomonas aeruginosa [36]): inactive; inhibition zone (IZ) (Pseudomonas aeruginosa [37]): inactive |
| CC/C=C/C1=C(c2ccc(O)c(O)c2)C(=O)OC1=O | 3.74 (≈ 14.4 µM) | 31 | 27 | 23 | 18 | 16 | 11 | inactive | inactive | inactive | inactive | inactive | inactive | inactive | inactive | inactive | inactive | 18 | 14 | 9 | inhibition zone (IZ) (Escherichia coli [8]; dose 0.1 µg): inactive; inhibition zone (IZ) (Escherichia coli [9]; dose 0.03 µg): inactive; inhibition zone (IZ) (Pseudomonas aeruginosa [23]; dose 3.0 µg): inactive; inhibition zone (IZ) (Pseudomonas aeruginosa [24]; dose 1.0 µg): inactive; inhibition zone (IZ) (Pseudomonas aeruginosa [25]): inactive; inhibition zone (IZ) (Pseudomonas aeruginosa [26]): inactive; inhibition zone (IZ) (Pseudomonas aeruginosa [29]): inactive; inhibition zone (IZ) (Pseudomonas aeruginosa [30]): inactive; inhibition zone (IZ) (Pseudomonas aeruginosa [31]): inactive; inhibition zone (IZ) (Pseudomonas aeruginosa [32]): inactive; inhibition zone (IZ) (Pseudomonas aeruginosa [33]): inactive; inhibition zone (IZ) (Pseudomonas aeruginosa [34]): inactive; inhibition zone (IZ) (Pseudomonas aeruginosa [35]): inactive |
